Where “and” joins values, the source holds several entries; their conditions need not be identical. Equal values may be shown once. Inconclusive results and toxic doses are left out. How the source made its calls: active means survival T/C of 150% or more; inactive means T/C below 125% in these data. Bridge positions count the residues as written; N and C are the ends. Peptide text beside a SMILES is read from it. I, II: the chains in the order shown. * marks the point of attachment. Quinoxaline2carbonyl = O=C(c1cnc2ccccc2n1)*
Test system: P388 leukemia ip, CD2F1 mice, survival T/C
Test: NCI In Vivo Anticancer Drug Screen. Data for tumor model P388 Leukemia (intraperitoneal) in CD2F1 (CDF1) mice
Conditions: endpoint: median survival time, higher = longer survival
Outline: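 Mice carrying the transplanted tumor received test compound or vehicle. Survival was recorded in each group, and the value is the treated-group measurement divided by that of the vehicle-treated control group.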

[1] = dose: 50.0 mg/kg/injection, schedule: Q01DX009 (ip), vehicle: Klucel (hydroxypropylcellulose) (HPC)
[2] = dose: 100.0 mg/kg/injection, schedule: Q01DX009 (ip), vehicle: Klucel (hydroxypropylcellulose) (HPC)
[3] = dose: 200.0 mg/kg/injection, schedule: Q01DX009 (ip), vehicle: Klucel (hydroxypropylcellulose) (HPC)
[4] = dose: 50.0 mg/kg/injection, schedule: Q01DX005 (ip), vehicle: Klucel (hydroxypropylcellulose) (HPC)
[5] = dose: 100.0 mg/kg/injection, schedule: Q01DX005 (ip), vehicle: Klucel (hydroxypropylcellulose) (HPC)
[6] = dose: 200.0 mg/kg/injection, schedule: Q01DX005 (ip), vehicle: Klucel (hydroxypropylcellulose) (HPC)
[7] = dose: 50.0 mg/kg/injection, schedule: Q01DX009 (ip), vehicle: saline
[8] = dose: 100.0 mg/kg/injection, schedule: Q01DX009 (ip), vehicle: saline
[9] = dose: 200.0 mg/kg/injection, schedule: Q01DX009 (ip), vehicle: saline
[10] = dose: 25.0 mg/kg/injection, schedule: Q01DX009 (ip), vehicle: Klucel (hydroxypropylcellulose) (HPC)
[11] = dose: 60.0 mg/kg/injection, schedule: Q01DX005 (ip), vehicle: Klucel (hydroxypropylcellulose) (HPC)
[12] = dose: 50.0 mg/kg/injection, schedule: Q01DX005 (ip), vehicle: saline with Tween-80
[13] = dose: 100.0 mg/kg/injection, schedule: Q01DX005 (ip), vehicle: saline with Tween-80
[14] = dose: 200.0 mg/kg/injection, schedule: Q01DX005 (ip), vehicle: saline with Tween-80

Measured: T/C

CC(/C=C1\C(=O)N(C)C(CC(C)C(Cl)(Cl)Cl)C(=O)N1C)C(Cl)(Cl)Cl (centres undefined)
inactive: dose: 4.75 mg/kg/injection, schedule: Q01DX005 (ip), vehicle: saline with Tween-80 101 % of control | dose: 9.5 mg/kg/injection, schedule: Q01DX005 (ip), vehicle: saline with Tween-80 100 % of control | dose: 19.0 mg/kg/injection, schedule: Q01DX005 (ip), vehicle: saline with Tween-80 95 % of control | dose: 38.0 mg/kg/injection, schedule: Q01DX005 (ip), vehicle: saline with Tween-80 101 % of control

CCOC(=O)C(C#N)C=Nc1cccc(N(C)C)c1 (centres undefined)
inactive: [1] 108 % of control | [2] 117 % of control | [3] 104 % of control

CCOP(=S)(N/N=C(/c1ccc(C)s1)C(F)(F)F)OCC
inactive: [4] 104 % of control | [5] 110 % of control | [6] 114 % of control

N#C/C(=C/c1cccs1)c1cccs1
inactive: dose: 60.0 mg/kg/injection, schedule: Q01DX005 (ip), vehicle: saline with Tween-80 100 % of control | dose: 120.0 mg/kg/injection, schedule: Q01DX005 (ip), vehicle: saline with Tween-80 106 % of control | dose: 240.0 mg/kg/injection, schedule: Q01DX005 (ip), vehicle: saline with Tween-80 109 % of control

COC(=O)/C=C/CCOC1CCCCO1 (centres undefined)
inactive: dose: 50.0 mg/kg/injection, schedule: Q01DX009 (ip), vehicle: other 108 % of control | dose: 100.0 mg/kg/injection, schedule: Q01DX009 (ip), vehicle: other 112 % of control | dose: 200.0 mg/kg/injection, schedule: Q01DX009 (ip), vehicle: other 107 % of control

O=C(c1ccccc1)N(CCO)CCO
inactive: [7] 108 % of control | [8] 94 % of control | [9] 101 % of control

COc1cc(C(=O)c2cc3c(cc2C)OCO3)cc(OC)c1OC
inactive: [10] 109 % of control | [1] 113 % of control

C=C(CCS(=O)c1ccccc1)CC(CC(=C)COC(C)=O)S(=O)(=O)c1ccccc1 (centres undefined)
inactive: [11] 99 % of control | dose: 120.0 mg/kg/injection, schedule: Q01DX005 (ip), vehicle: Klucel (hydroxypropylcellulose) (HPC) 99 % of control | dose: 240.0 mg/kg/injection, schedule: Q01DX005 (ip), vehicle: Klucel (hydroxypropylcellulose) (HPC) 98 % of control

CCOC(=O)CSc1nnc(-c2cc(OC)c(OC)c(OC)c2)o1
inactive: dose: 100.0 mg/kg/injection, schedule: Q01DX001 (ip), vehicle: Klucel (hydroxypropylcellulose) (HPC) 98 % of control | dose: 200.0 mg/kg/injection, schedule: Q01DX001 (ip), vehicle: Klucel (hydroxypropylcellulose) (HPC) 104 % of control | dose: 400.0 mg/kg/injection, schedule: Q01DX001 (ip), vehicle: Klucel (hydroxypropylcellulose) (HPC) 92 % of control

COc1cc2cnc(-c3ccccc3)cc2cc1OC
inactive: dose: 100.0 mg/kg/injection, schedule: Q04DX003 (ip), vehicle: suspension in saline 101 % of control | dose: 200.0 mg/kg/injection, schedule: Q04DX003 (ip), vehicle: suspension in saline 93 % of control | dose: 400.0 mg/kg/injection, schedule: Q04DX003 (ip), vehicle: suspension in saline 93 % of control

CCCCOC(=O)C1ON(c2ccc(C=O)cc2)C(c2ccc([N+](=O)[O-])cc2)C1C(=O)OCCCC (centres undefined)
inactive: [4] 97 % of control | [5] 94 % of control | [6] 91 % of control

O=C1C(Sc2ccccc2)C(c2ccccc2)C1Sc1ccccc1 (centres undefined)
inactive: [12] 96 % of control | [13] 105 % of control | [14] 99 % of control

O=[N+]([O-])c1cc(C(F)(F)F)ccc1F
inactive: [10] 106 % of control | [1] 106 % of control

O=C(c1ccccc1)c1cnc2ccccc2c1
inactive: [4] 101 % of control | [5] 101 % of control | [6] 104 % of control

COCOc1cccc2c1CCC2
inactive: [12] 100 % of control | [13] 100 % of control | [14] 100 % of control

C=C(C)C(=O)N(C)c1nc(N(C)C)nc(N(C)C)n1
inactive: [4] 101 % of control | [5] 103 % of control | [6] 103 % of control

CC(=O)CC(=O)OC(C)(C)C#CC(C)(C)OC(=O)CC(C)=O
inactive: [7] 102 % of control | [8] 103 % of control | [9] 100 % of control

CCOC(=O)c1ccc(N)cc1
inactive: dose: 12.5 mg/kg/injection, schedule: Q01DX009 (ip), vehicle: distilled water + Tween-80 105 % of control | dose: 25.0 mg/kg/injection, schedule: Q01DX009 (ip), vehicle: distilled water + Tween-80 105 % of control | dose: 37.5 mg/kg/injection, schedule: Q01DX009 (ip), vehicle: saline with Tween-80 100 % of control | dose: 37.5 mg/kg/injection, schedule: Q04DX003 (ip), vehicle: saline with Tween-80 91 % of control | dose: 50.0 mg/kg/injection, schedule: Q01DX009 (ip), vehicle: distilled water + Tween-80 104 % of control | dose: 75.0 mg/kg/injection, schedule: Q01DX009 (ip), vehicle: saline with Tween-80 109 % of control | dose: 75.0 mg/kg/injection, schedule: Q04DX003 (ip), vehicle: saline with Tween-80 100 % of control | dose: 100.0 mg/kg/injection, schedule: Q01DX009 (ip), vehicle: distilled water + Tween-80 110 % of control | dose: 150.0 mg/kg/injection, schedule: Q01DX009 (ip), vehicle: saline with Tween-80 100 % of control | dose: 150.0 mg/kg/injection, schedule: Q04DX003 (ip), vehicle: saline with Tween-80 91 % of control | dose: 200.0 mg/kg/injection, schedule: Q01DX009 (ip), vehicle: distilled water + Tween-80 102 % of control

Cc1ccc(NC(=O)OCCN(C)C)cc1Cl
inactive: dose: 60.0 mg/kg/injection, schedule: Q01DX005 (ip), vehicle: Klucel + Tween-80 101 % of control | dose: 120.0 mg/kg/injection, schedule: Q01DX005 (ip), vehicle: Klucel + Tween-80 99 % of control | dose: 240.0 mg/kg/injection, schedule: Q01DX005 (ip), vehicle: Klucel + Tween-80 91 % of control

CCOC(=O)/C=C(\C)NCCSSCCN/C(C)=C/C(=O)OCC
inactive: [1] 100 % of control | [2] 97 % of control | [3] 90 % of control

CC1NC(=O)C(NC(=O)c2cnc3ccccc3n2)COC(=O)C(C(C)C)NC(=O)C2CSSCC(NC1=O)C(=O)NC(C(C)C)C(=O)OCC(NC(=O)c1cnc3ccccc3n1)C(=O)NC(C)C(=O)N2 (centres undefined) (I: Quinoxaline2carbonyl-SACV / II: Quinoxaline2carbonyl-SACV; ester I:1-II:C, I:C-II:1; disulfide I:3-II:3; configuration not given here)
inactive: dose: 1.25 mg/kg/injection, schedule: Q01DX005 (ip), vehicle: Klucel (hydroxypropylcellulose) (HPC) 96 % of control | dose: 2.5 mg/kg/injection, schedule: Q01DX005 (ip), vehicle: Klucel (hydroxypropylcellulose) (HPC) 98 % of control | dose: 5.0 mg/kg/injection, schedule: Q01DX005 (ip), vehicle: Klucel (hydroxypropylcellulose) (HPC) 95 % of control | dose: 10.0 mg/kg/injection, schedule: Q01DX005 (ip), vehicle: Klucel (hydroxypropylcellulose) (HPC) 90 % of control | dose: 20.0 mg/kg/injection, schedule: Q01DX005 (ip), vehicle: Klucel (hydroxypropylcellulose) (HPC) 95 % of control | dose: 40.0 mg/kg/injection, schedule: Q01DX005 (ip), vehicle: Klucel (hydroxypropylcellulose) (HPC) 93 % of control | [11] 95 % of control

O=C1c2ccccc2C(=O)c2ncccc21
inactive: dose: 100.0 mg/kg/injection, schedule: Q04DX003 (ip), vehicle: saline with Tween-80 100 % of control | dose: 200.0 mg/kg/injection, schedule: Q04DX003 (ip), vehicle: saline with Tween-80 99 % of control | dose: 400.0 mg/kg/injection, schedule: Q04DX003 (ip), vehicle: saline with Tween-80 100 % of control

CCCCC(=O)Nc1ncc([N+](=O)[O-])s1
inactive: [10] 110 % of control | [1] 102 % of control and 104 % of control and 116 % of control | [2] 101 % of control and 103 % of control and 113 % of control | [3] 105 % of control and 111 % of control and 123 % of control

O=C(Nc1ccc(Cl)c(Cl)c1)NC1CC1
inactive: dose: 50.0 mg/kg/injection, schedule: Q01DX009 (ip), vehicle: saline with Tween-80 119 % of control | dose: 100.0 mg/kg/injection, schedule: Q01DX009 (ip), vehicle: saline with Tween-80 102 % of control | dose: 200.0 mg/kg/injection, schedule: Q01DX009 (ip), vehicle: saline with Tween-80 93 % of control
